Tests used:
[1] = Tested for the cytotoxicity against the repair deficient xrs-6 chinese hamster ovary cell line; format: functional, cell-based; settings: Cricetulus griseus
HCT-116 = assay: Tested for the cytotoxicity to inhibit replication assay against the human colon tumor cell line HCT116; format: functional, cell-based
[2] = Differential cytotoxicity was determined from the ratio between BR1(IC50) and xrs-6 (IC50); format: functional
[3] = Concentration required to reduce ethidium bromide fluorescence to 50% of control in presence of calf thymus DNA
[4] = target: DNA topoisomerase II (Homo sapiens) (UniProt P11388+Q02880); assay: Effect of dose dependent inhibition of TOPO II-catalyzed kDNA decatenation in vitro; settings: Crithidia fasciculata

IC90 [4] [µM] | Compound | IC50 [1] [µM] | IC50 (HCT-116) [µM] | Ratio [2] | Concentration for 50% ethidium displacement (C50) [3] [µM]
– | CC(C)=CC(=O)NCCc1c2c3c(ccnc3c3ncsc13)-c1ccccc1N2 | 80 | 8.3 | 1 | > 100
– | CC(C)=CC(=O)NCCc1c2c(c3nccc4c3c1Nc1ccccc1-4)NC(=O)CS2 | 8.1 | 16.3 | 1 | > 100
8.4 | CC(=O)NCCC1=CC(=O)c2nccc3c2c1nc1ccccc13 | 136 | 1.6 | 1 | 54
33 | COc1cc(NS(C)(=O)=O)ccc1Nc1c2ccccc2nc2ccccc12 [AMSACRINE] | 0.24 | 6.3 | 4 | –
9.2 | CSC1=C(CCNC(C)=O)c2nc3ccccc3c3ccnc(c23)C1=O [DIPLAMINE] | 71.2 | < 1.4 | 1 | 21
– | c1ccc2c(c1)nc1c3nc4ccccc4c4ccnc(c5nccc2c51)c43 [EILATIN] | – | 5.3 | – | > 100
68 | COc1cc([C@@H]2c3cc4c(cc3[C@@H](O[C@@H]3O[C@@H]5CO[C@@H](C)O[C@H]5[C@H](O)[C@H]3O)[C@H]3COC(=O)[C@H]23)OCO4)cc(OC)c1O [ETOPOSIDE] | 0.14 | 2.5 | 7 | –
– | CC(=O)NCCc1c2c3c(ccnc3c3ncsc13)-c1ccccc1N2 [KUANONIAMINE D] | 88.9 | 7.8 | 2 | 62
– | O=C1c2c(O)ccc(O)c2C(=O)c2c(NCCNCCO)ccc(NCCNCCO)c21 [MITOXANTRONE] | 0.001 | – | 9 | –
– | CC(=O)NCCc1c2c(c3nccc4c3c1Nc1ccccc1-4)NC(=O)CS2 [SHERMILAMINE B] | 14.9 | 13.8 | 1 | > 100

— ChEMBL document CHEMBL1127394, “Inhibition of topoisomerase II catalytic activity by pyridoacridine alkaloids from a Cystodytes sp. ascidian: a mechanism for the apparent intercalator-induced inhibition of topoisomerase II” (J Med Chem, 1994)
